The target in one assay is VR (Homo sapiens, UniProt Q8NER1). As to conditions: typical value, background section; read-out: K; value (binds to VR); cited from earlier work.
For another assay, the target named is T1, human capsaicin receptor (Homo sapiens, UniProt Q8NER1).
T1 construct: pBK-CMV expression construct encoding the full length human capsaicin receptor; expressed in transfected cells
Put plainly: Calcium mobilization assay. The assay is classed as cell-based. As to conditions: cells expressing human capsaicin receptor, FLUO-3 fluorescence; positive control in agonist assay; read-out: approximate EC90 concentration. On the procedure:
This Example illustrates representative calcium mobilization assays for use in evaluating test compounds for agonist and antagonist activity.
The culture medium is emptied from the 96 well plates and FLUO-3 AM calcium sensitive dye (Molecular Probes, Eugene, Oreg.) is added to each well (dye solution: 1 mg FLUO-3 AM, 440 μL DMSO and 440 μl 20% pluronic acid in DMSO, diluted 1:250 in Krebs-Ringer HEPES (KRH) buffer (25 mM HEPES, 5 mM KCl, 0.96 mM NaH2PO4, 1 mM MgSO4, 2 mM CaCl2, 5 mM glucose, 1 mM probenecid, pH 7.4), 50 μl diluted solution per well). Plates are covered with aluminum foil and incubated at 37° C. for 1-2 hours in an environment containing 5% CO2. […]
To measure the ability of a test compound to agonize or antagonize a calcium mobilization response in cells expressing capsaicin receptors to capsaicin or other vanilloid agonist, the EC50 of the agonist capsaicin is first determined. […] Capsaicin-induced calcium mobilization is monitored using either FLUOROSKAN ASCENT (Labsystems; Franklin, Mass.) or FLIPR (fluorometric imaging plate reader system; Molecular Devices, Sunnyvale, Calif.) instruments. […] In this equation, y is the maximum fluorescence signal, x is the concentration of the agonist or antagonist (in this case, capsaicin), a is the Emax, b corresponds to the EC50 value and c is the Hill coefficient. […]
A general note: A change in cytosolic calcium serves as a functional read-out for many receptors and channels.

Molecules are shown by their SMILES. Some results are limits rather than exact numbers.

T1 sequence (Q8NER1 whole entry): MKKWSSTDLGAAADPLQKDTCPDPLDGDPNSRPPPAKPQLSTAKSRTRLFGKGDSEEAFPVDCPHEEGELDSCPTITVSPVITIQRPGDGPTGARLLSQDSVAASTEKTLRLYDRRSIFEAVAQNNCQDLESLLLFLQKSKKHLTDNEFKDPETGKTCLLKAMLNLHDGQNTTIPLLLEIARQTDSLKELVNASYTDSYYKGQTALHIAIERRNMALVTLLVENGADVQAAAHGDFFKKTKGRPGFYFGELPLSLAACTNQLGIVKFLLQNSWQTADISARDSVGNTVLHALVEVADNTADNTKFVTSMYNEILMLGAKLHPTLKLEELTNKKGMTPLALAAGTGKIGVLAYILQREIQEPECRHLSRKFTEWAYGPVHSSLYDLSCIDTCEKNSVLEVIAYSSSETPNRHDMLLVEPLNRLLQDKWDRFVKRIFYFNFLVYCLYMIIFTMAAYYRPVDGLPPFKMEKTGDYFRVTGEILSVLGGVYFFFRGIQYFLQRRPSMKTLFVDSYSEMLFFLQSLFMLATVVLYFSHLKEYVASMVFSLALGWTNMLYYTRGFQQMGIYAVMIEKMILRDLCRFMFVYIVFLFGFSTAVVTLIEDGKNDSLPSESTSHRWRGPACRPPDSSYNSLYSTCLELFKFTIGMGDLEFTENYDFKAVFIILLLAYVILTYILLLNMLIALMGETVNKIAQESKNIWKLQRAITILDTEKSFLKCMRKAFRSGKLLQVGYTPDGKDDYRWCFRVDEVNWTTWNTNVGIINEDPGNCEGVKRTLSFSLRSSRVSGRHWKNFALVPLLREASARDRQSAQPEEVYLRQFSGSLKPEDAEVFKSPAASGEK
Sequence of VR (Q8NER1 whole entry): as above

As to `Cl.Cl.Cl.Cl.Cl.Cl.N.N.N.N.N.N.N.N.N.N.N.N.N.N.[O-2].[O-2].[Ru+3].[Ru+3].[Ru+4]` [ruthenium red], the Ki at VR was at least 140000 nM.

For the molecule `COc1cc(CNC(=O)CCCC/C=C/C(C)C)ccc1O` [capsaicin], on human capsaicin receptor, the EC90 was about 100 nM.
